Earlier results as cited in patent publication US20130030007A1, “Obesity Small Molecules” (AKRON MOLECULES GMBH, priority 2010, published 2013).
Non-standard residues stand in square brackets, D forms with d. Residues, ends and D or L forms follow the SMILES beside them. *: point of attachment. Sta = CC(C)C[C@H](N)[C@@H](O)CC(=O)O; Isovaleryl = CC(C)CC(=O)*

System: human ortholog of Drosophila obesity gene
Parameters: key: O: Obesity - obesity pathway interaction; B: validated binding partner
Settings: cited from earlier work

Structure (SMILES)	Type: Type of interaction
Oc1ccc2c3c1O[C@H]1c4[nH]c5c(c4C[C@@]4(O)[C@@H](C2)N(CC2CC2)CC[C@]314)C[C@@]1(O)[C@H]2Cc3ccc(O)c4c3[C@@]1(CCN2CC1CC1)[C@H]5O4 [Norbinaltorphimine]	O
CN(C)CC1CCCCC1(O)c1cccc(O)c1 (stereo not shown) [O-demethyltramadol]	O
Oc1ccccc1OC(c1ccccc1)C1CNCCO1 (stereo not shown) [O-desethylreboxetine]	B
C[C@@H](O)[C@@H]1NC(=O)[C@H](CCCCN)NC(=O)[C@@H](Cc2c[nH]c3ccccc23)NC(=O)[C@H](Cc2ccccc2)NC(=O)[C@@H](NC(=O)[C@H](N)Cc2ccccc2)CSSC[C@@H](C(=O)N[C@H](CO)[C@@H](C)O)NC1=O [Octreotide]	B and O
C[Si](Cn1cncn1)(c1ccc(F)cc1)c1ccc(F)cc1 [Olymp]	O
C[C@]12CCC(=O)C=C1CC[C@@H]1[C@@H]2[C@@H](O)C[C@@]2(C)[C@H]1CC[C@]2(O)C(=O)CO [Optef]	O
NCCc1cc(O)c(O)cc1O [Oxidopamine]	B
COc1cccc(-c2cc(=O)c3ccccc3o2)c1N [PD 98059]	B
O=[N+]([O-])c1ccc(-c2nc(-c3ccc(F)cc3)c(-c3ccncc3)[nH]2)cc1 [PD 169316]	B
CCN(CC)CCCCNc1ncc2cc(-c3cc(OC)cc(OC)c3)c(NC(=O)NC(C)(C)C)nc2n1 [PD 173074]	B
CCCC(=O)O[C@@H]1[C@@H](C)[C@@]2(O)[C@@H](C=C(CO)C[C@]3(O)C(=O)C(C)=C[C@@H]23)[C@@H]2C(C)(C)[C@]12OC(=O)CCC [PDBU]	O
O=S(=O)(F)Cc1ccccc1 [PMSF]	O
O=C1C=C2C(=CCOC2O)O1 (stereo not shown) [Patulin]	O
CC1=C\[C@H](C)C[C@@]2(C)CC[C@@H](O2)[C@@]23CC[C@@](C)(C[C@@H](O2)[C@H]2O[C@](C)(CC2=O)[C@@H](O)[C@@H]2CC[C@@]4(CCC[C@H](O4)[C@@H](C)C(=O)O[C@@H]4C[C@@H]([C@@]5(O)OCC[C@@H](C)[C@H]5O)O[C@@H]4\C=C\1)O2)O3 [Pectenotoxin II]	B
Cc1c(N)nc([C@H](CC(N)=O)NC[C@H](N)C(N)=O)nc1C(=O)N[C@H](C(=O)N[C@H](C)[C@@H](O)[C@H](C)C(=O)N[C@H](C(=O)NCCc1nc(-c2nc(C(=O)NCCCN[C@@H](C)c3ccccc3)cs2)cs1)[C@@H](C)O)[C@@H](O[C@@H]1O[C@@H](CO)[C@@H](O)[C@H](O)[C@@H]1O[C@H]1O[C@H](CO)[C@@H](O)[C@H](OC(N)=O)[C@@H]1O)c1c[nH]cn1 [Peplomycin]	B
CC(C)CC(=O)N[C@H](C(=O)N[C@H](C(=O)N[C@@H](CC(C)C)[C@@H](O)CC(=O)N[C@@H](C)C(=O)N[C@@H](CC(C)C)[C@@H](O)CC(=O)O)C(C)C)C(C)C [Pepstatin A] (Isovaleryl-VV[Sta]A[Sta]-OH)	O
CCCc1cc(=O)[nH]c(=S)[nH]1 [Procasil]	O
CC(C)OC(=O)C(C)(C)Oc1ccc(C(=O)c2ccc(Cl)cc2)cc1 [Procetofen]	O
CC(=O)[C@@]1(O)CC[C@H]2[C@@H]3CCC4=CC(=O)CC[C@]4(C)[C@H]3CC[C@@]21C [Prodix]	B
CC(C)c1cccc(C(C)C)c1O [Propofol]	B
Cc1cc(O)c2c(=O)c3c(O)cc(O)c4c5c(O)cc(O)c6c(=O)c7c(O)cc(CO)c8c1c2c(c34)c(c65)c78 [Pseudohypericin]	O
O[C@]12C=C(c3nccc4c3[nH]c3ccccc34)[C@@H]3CCN(CCCC/C=C\CC1)C[C@@]31C[C@@H]3/C=C\CCCCN3[C@H]12 [manzamine A]	O
COc1ccc2c(c1)[C@@]13CCCC[C@H]1[C@@H](C2)NCC3 [methoxymorphinan]	O

Same assay, conditions: interaction of the small molecule with the human ortholog(s) / Drosophila gene(s) listed in the same table line; cited from earlier work

Structure (SMILES)	Type: Type of interaction
CO[C@@H]1C[C@@H](C[C@H]2CC[C@H](C)[C@H]([C@@H](C)C(=O)O)O2)O[C@]2(O[C@](C)([C@H]3CC[C@@](C)([C@@H]4O[C@@H]([C@H]5O[C@@](O)(CO)[C@H](C)C[C@@H]5C)C[C@@H]4C)O3)C[C@H]2C)[C@@H]1C [Nigericin]	O
COc1ccc(-c2cc(=O)c3c(OC)c(OC)c(OC)c(OC)c3o2)cc1OC [Nobiletin]	O
CC(Cc1ccc(O)c(O)c1)C(C)Cc1ccc(O)c(O)c1 (stereo not shown) [Nordihydroguaiaretic Acid]	B
C#C[C@]1(O)CC[C@H]2[C@@H]3CCC4=CC(=O)CC[C@@H]4[C@H]3CC[C@@]21C [Norethindrone]	O
O=C(Nc1ccc(OC(F)(F)F)cc1)c1sccc1NCc1ccnc2ccccc12 [OSI 930]	O
NCC(=O)Nc1ccc(-n2nc(C(F)(F)F)cc2-c2ccc3c(ccc4ccccc43)c2)cc1 [OSU 03012]	B
NCCO [Olamine]	B
Cc1nccn1CC1CCc2c(c3ccccc3n2C)C1=O (stereo not shown) [Ondansetron]	O
CO[C@H]1O[C@H](COS(=O)(=O)O)[C@@H](O[C@@H]2O[C@@H](C(=O)O)[C@@H](O[C@H]3O[C@H](COS(=O)(=O)O)[C@@H](O[C@@H]4O[C@H](C(=O)O)[C@@H](O[C@H]5O[C@H](COS(=O)(=O)O)[C@@H](O)[C@H](O)[C@H]5NS(=O)(=O)O)[C@H](O)[C@H]4O)[C@H](OS(=O)(=O)O)[C@H]3NS(=O)(=O)O)[C@H](O)[C@H]2OS(=O)(=O)O)[C@H](O)[C@H]1NS(=O)(=O)O [Org 31540]	B
Cc1ccccc1C(OCCN(C)C)c1ccccc1 (stereo not shown) [Orphenadrine]	O
C[C@@H]1O[C@@H](O[C@H]2C[C@@H](O)[C@]3(CO)[C@H]4[C@H](O)C[C@]5(C)[C@@H](C6=CC(=O)OC6)CC[C@]5(O)[C@@H]4CC[C@]3(O)C2)[C@H](O)[C@H](O)[C@H]1O [Ouabain]	B
CCN(CC)CC#CCOC(=O)C(O)(c1ccccc1)C1CCCCC1 (stereo not shown) [Oxytrol]	O
CC(=O)O[C@H]1C(=O)[C@@]2(C)[C@H]([C@H](OC(=O)c3ccccc3)[C@]3(O)C[C@H](OC(=O)[C@H](O)[C@@H](NC(=O)c4ccccc4)c4ccccc4)C(C)=C1C3(C)C)[C@]1(OC(C)=O)CO[C@@H]1C[C@@H]2O [Paclitaxel]	B
Nc1nc2[nH]cc(CCc3ccc(C(=O)N[C@@H](CCC(=O)O)C(=O)O)cc3)c2c(=O)[nH]1 [Pemetrexed]	B
CC(=O)CCCCn1c(=O)c2c(ncn2C)n(C)c1=O [Pentoxifylline]	B
CN1CCN(CCCN2c3ccccc3Sc3ccccc32)CC1 [Perazine]	O
C=C(C)[C@@H]1CC=C(CO)CC1 [Perillol]	B
CCC[C@H](N[C@@H](C)C(=O)N1[C@H](C(=O)O)C[C@@H]2CCCC[C@@H]21)C(=O)OCC [Perindopril]	B

Structure (SMILES)	Type: Type of interaction
CCC(c1ccccc1)c1c(O)c2ccccc2oc1=O (stereo not shown) [Phenprocoumon]	O
O=C1NC(=O)C(c2ccccc2)(c2ccccc2)N1 [Phenytoin]	B
CN1C(C(=O)Nc2ccccn2)=C(O)c2ccccc2S1(=O)=O [Piroxicam]	B
COc1cc2nc(N3CCN(C(=O)c4ccco4)CC3)nc(N)c2cc1OC [Prazosin]	O
C[C@]12C=CC(=O)C=C1CC[C@@H]1[C@@H]2C(=O)C[C@@]2(C)[C@H]1CC[C@]2(O)C(=O)CO [Prednisone]	O
CCC1(c2ccccc2)C(=O)NCNC1=O [Primidone]	B
CCCC(C(=O)OCCN(CC)CC)(c1ccccc1)c1ccccc1 [Proadifen]	O
CCC(=O)[C@@]1(C)CC[C@H]2[C@@H]3CCC4=CC(=O)CCC4=C3CC[C@@]21C [Promegestone]	O
CC(=O)N[C@H]1/C(=N/OC(=O)Nc2ccccc2)O[C@H](CO)[C@@H](O)[C@@H]1O [Pugnac]	B
O=C(c1ccc(OCCN2CCCCC2)cc1)c1c(-c2ccc(O)cc2)sc2cc(O)ccc12 [Raloxifene]	B
O=c1c(O)c(-c2ccc(O)c(O)c2)oc2cc(O)cc(O)c12 [meletin]	B
Nc1ccc(O)c(C(=O)O)c1 [mesalamine]	B
Cc1cccc(C)c1N(Cn1cccn1)C(=O)CCl [metazachlor]	B
Cc1nc2nc(N)[nH]c(=O)c2nc1[C@@H](C)Nc1ccc(C[C@H](O)[C@H](O)[C@H](O)CO[C@H]2O[C@H](COP(=O)(O)O[C@@H](CCC(=O)O)C(=O)O)[C@@H](O)[C@H]2O)cc1 [methanopterin]	B
Clc1ccc(COC(Cn2ccnc2)c2ccc(Cl)cc2Cl)c(Cl)c1 (stereo not shown) [miconazole]	O
CCCCN1C[C@H](O)[C@@H](O)[C@H](O)[C@H]1CO [miglustat]	O
CN1CCN2c3ncccc3Cc3ccccc3C2C1 (stereo not shown) [mirtazapine]	B
